Measurements from ChEMBL document CHEMBL3797052 (Eur J Med Chem, 2016).

Tests used:
Type in all cases: functional
[1] = Cytotoxicity against human HCT116 cells assessed as growth inhibition at 100 uM after 2 days by MTT assay; conditions: HCT-116, 48 h, read-out: GI
[2] = Cytotoxicity against human HCT116 cells assessed as growth inhibition at 10 uM after 2 days by MTT assay; conditions: HCT-116, 48 h, read-out: GI
[3] = Cytotoxicity against human SKBR3 cells assessed as growth inhibition at 100 uM after 2 days by MTT assay; conditions: SK-BR-3, 48 h, read-out: GI
[4] = Cytotoxicity against human SKBR3 cells assessed as growth inhibition at 10 uM after 2 days by MTT assay; conditions: SK-BR-3, 48 h, read-out: GI
CCRF-CEM = experiment: Antiproliferative activity against human CCRF-CEM cells assessed as cell growth at 10^-5 M after 48 hrs by sulforhodamine B assay; conditions: read-out: Activity
[5] = Antiproliferative activity against human HL-60(TB) cells assessed as cell growth at 10^-5 M after 48 hrs by sulforhodamine B assay; conditions: HL-60, 48 h, read-out: Activity
A549 = experiment: Antiproliferative activity against human A549/ATCC cells assessed as cell growth at 10^-5 M after 48 hrs by sulforhodamine B assay; conditions: A549, 48 h, read-out: Activity
[6] = Antiproliferative activity against human HOP92 cells assessed as cell growth at 10^-5 M after 48 hrs by sulforhodamine B assay; conditions: HOP-92, 48 h, read-out: Activity
NCI-H226 = experiment: Antiproliferative activity against human NCI-H226 cells assessed as cell growth at 10^-5 M after 48 hrs by sulforhodamine B assay; conditions: NCI-H226, 48 h, read-out: Activity
NCI-H23 = experiment: Antiproliferative activity against human NCI-H23 cells assessed as cell growth at 10^-5 M after 48 hrs by sulforhodamine B assay; conditions: NCI-H23, 48 h, read-out: Activity
NCI-H322M = experiment: Antiproliferative activity against human NCI-H322M cells assessed as cell growth at 10^-5 M after 48 hrs by sulforhodamine B assay; conditions: read-out: Activity
[7] = Antiproliferative activity against human COLO205 cells assessed as cell growth at 10^-5 M after 48 hrs by sulforhodamine B assay; conditions: COLO 205, 48 h, read-out: Activity
[8] = Antiproliferative activity against human HCC2998 cells assessed as cell growth at 10^-5 M after 48 hrs by sulforhodamine B assay; conditions: HCC 2998, 48 h, read-out: Activity
[9] = Antiproliferative activity against human HCT15 cells assessed as cell growth at 10^-5 M after 48 hrs by sulforhodamine B assay; conditions: HCT-15, 48 h, read-out: Activity
KM12 = experiment: Antiproliferative activity against human KM12 cells assessed as cell growth at 10^-5 M after 48 hrs by sulforhodamine B assay; conditions: KM12, 48 h, read-out: Activity
[10] = Antiproliferative activity against human SW620 cells assessed as cell growth at 10^-5 M after 48 hrs by sulforhodamine B assay; conditions: SW-620, 48 h, read-out: Activity
[11] = Antiproliferative activity against human SF268 cells assessed as cell growth at 10^-5 M after 48 hrs by sulforhodamine B assay; conditions: SF-268, 48 h, read-out: Activity
[12] = Antiproliferative activity against human SNB19 cells assessed as cell growth at 10^-5 M after 48 hrs by sulforhodamine B assay; conditions: SNB-19, 48 h, read-out: Activity
MDA-MB-435 = experiment: Antiproliferative activity against human MDA-MB-435 cells assessed as cell growth at 10^-5 M after 48 hrs by sulforhodamine B assay; conditions: MDA-MB-435, 48 h, read-out: Activity
SK-MEL-2 = experiment: Antiproliferative activity against human SK-MEL-2 cells assessed as cell growth at 10^-5 M after 48 hrs by sulforhodamine B assay; conditions: SK-MEL-2, 48 h, read-out: Activity
[13] = Antiproliferative activity against human UACC257 cells assessed as cell growth at 10^-5 M after 48 hrs by sulforhodamine B assay; conditions: UACC-257, 48 h, read-out: Activity
[14] = Antiproliferative activity against human IGROV1 cells assessed as cell growth at 10^-5 M after 48 hrs by sulforhodamine B assay; conditions: IGROV-1, 48 h, read-out: Activity
[15] = Antiproliferative activity against human OVCAR3 cells assessed as cell growth at 10^-5 M after 48 hrs by sulforhodamine B assay; conditions: OVCAR-3, 48 h, read-out: Activity
[16] = Antiproliferative activity against human OVCAR4 cells assessed as cell growth at 10^-5 M after 48 hrs by sulforhodamine B assay; conditions: OVCAR-4, 48 h, read-out: Activity
[17] = Antiproliferative activity against human OVCAR5 cells assessed as cell growth at 10^-5 M after 48 hrs by sulforhodamine B assay; conditions: OVCAR-5, 48 h, read-out: Activity
[18] = Antiproliferative activity against human OVCAR8 cells assessed as cell growth at 10^-5 M after 48 hrs by sulforhodamine B assay; conditions: OVCAR-8, 48 h, read-out: Activity
[19] = Antiproliferative activity against human SKOV3 cells assessed as cell growth at 10^-5 M after 48 hrs by sulforhodamine B assay; conditions: SK-OV-3, 48 h, read-out: Activity
786-0 = experiment: Antiproliferative activity against human 786-0 cells assessed as cell growth at 10^-5 M after 48 hrs by sulforhodamine B assay; conditions: 786-0, 48 h, read-out: Activity
A498 = experiment: Antiproliferative activity against human A498 cells assessed as cell growth at 10^-5 M after 48 hrs by sulforhodamine B assay; conditions: A498, 48 h, read-out: Activity
[20] = Antiproliferative activity against human Caki1 cells assessed as cell growth at 10^-5 M after 48 hrs by sulforhodamine B assay; conditions: CAKI-1, 48 h, read-out: Activity
SN12C = experiment: Antiproliferative activity against human SN12C cells assessed as cell growth at 10^-5 M after 48 hrs by sulforhodamine B assay; conditions: read-out: Activity
[21] = Antiproliferative activity against human PC3 cells assessed as cell growth at 10^-5 M after 48 hrs by sulforhodamine B assay; conditions: PC-3, 48 h, read-out: Activity
[22] = Antiproliferative activity against human DU145 cells assessed as cell growth at 10^-5 M after 48 hrs by sulforhodamine B assay; conditions: DU-145, 48 h, read-out: Activity
MDA-MB-231 = experiment: Antiproliferative activity against human MDA-MB-231 cells assessed as cell growth at 10^-5 M after 48 hrs by sulforhodamine B assay; conditions: MDA-MB-231, 48 h, read-out: Activity
[23] = Antiproliferative activity against human Hs 578T cells assessed as cell growth at 10^-5 M after 48 hrs by sulforhodamine B assay; conditions: read-out: Activity
[24] = Antiproliferative activity against human BT549 cells assessed as cell growth at 10^-5 M after 48 hrs by sulforhodamine B assay; conditions: BT-549, 48 h, read-out: Activity
MDA-MB-468 = experiment: Antiproliferative activity against human MDA-MB-468 cells assessed as cell growth at 10^-5 M after 48 hrs by sulforhodamine B assay; conditions: MDA-MB-468, 48 h, read-out: Activity

`CNC(=O)c1cc(Oc2ccc3nc(NC(=O)c4cc(C(F)(F)F)cc(C(F)(F)F)c4)sc3c2)ccn1` gave an inhibition of growth at 100 µM [1] of 76.9%, an inhibition of growth at 10 µM [2] of 16.8% and an inhibition of growth at 100 µM [3] of 80.4%. It also gave an inhibition of growth at 10 µM [4] of 8.56%, a growth at 10 µM (CCRF-CEM) of 13% and a growth at 10 µM [5] of -47%. The growth at 10 µM (A549) was 13%, the growth at 10 µM [6] was -11% and the growth at 10 µM (NCI-H226) was 19%. For the same compound, the growth at 10 µM (NCI-H23) was 15%, the growth at 10 µM (NCI-H322M) was 18% and the growth at 10 µM [7] was -9%. The growth at 10 µM [8] was 39%, the growth at 10 µM [9] was 19% and the growth at 10 µM (KM12) was 2%. The growth at 10 µM [10] was 42%, the growth at 10 µM [11] was 11% and the growth at 10 µM [12] was 16%. It also gave a growth at 10 µM (MDA-MB-435) of 7%, a growth at 10 µM (SK-MEL-2) of -19% and a growth at 10 µM [13] of -10%. The growth at 10 µM [14] was 27%, the growth at 10 µM [15] was -19% and the growth at 10 µM [16] was 10%. For the same compound, the growth at 10 µM [17] was 32%, the growth at 10 µM [18] was 8% and the growth at 10 µM [19] was -10%. The growth at 10 µM (786-0) was -9%, the growth at 10 µM (A498) was -35% and the growth at 10 µM [20] was 2%. It also gave a growth at 10 µM (SN12C) of 6%, a growth at 10 µM [21] of 5% and a growth at 10 µM [22] of 16%. For the same compound, the growth at 10 µM (MDA-MB-231) was -25%, the growth at 10 µM [23] was 6% and the growth at 10 µM [24] was 5%. The growth at 10 µM (MDA-MB-468) was 5%.

With `CNC(=O)c1cc(Oc2ccc3nc(NC(=O)Nc4ccc(C(F)(F)F)cc4)sc3c2)ccn1` the inhibition of growth at 100 µM [1] was 74.9%, the inhibition of growth at 10 µM [2] was 64.8% and the inhibition of growth at 100 µM [3] was 79.6%. For the same compound, the inhibition of growth at 10 µM [4] was 69.9%, the growth at 10 µM (CCRF-CEM) was 68.1% and the growth at 10 µM [5] was 120%. The growth at 10 µM (A549) was 1.79%, the growth at 10 µM [6] was 74.4% and the growth at 10 µM (NCI-H226) was 85.6%. It also gave a growth at 10 µM (NCI-H23) of 63.4%, a growth at 10 µM (NCI-H322M) of 80.5% and a growth at 10 µM [7] of 58.8%. The growth at 10 µM [8] was 104%, the growth at 10 µM [9] was 54.2% and the growth at 10 µM (KM12) was 65%. For the same compound, the growth at 10 µM [10] was 37.9%, the growth at 10 µM [11] was 65% and the growth at 10 µM [12] was 79.3%. It also gave a growth at 10 µM (MDA-MB-435) of 40.9%, a growth at 10 µM (SK-MEL-2) of 92.9% and a growth at 10 µM [13] of 86.7%. The growth at 10 µM [14] was 70.9%, the growth at 10 µM [15] was 24% and the growth at 10 µM [16] was 37.7%. It also gave a growth at 10 µM [17] of 93.9%, a growth at 10 µM [18] of 48.5% and a growth at 10 µM [19] of 105%. The growth at 10 µM (786-0) was 35.5%, the growth at 10 µM (A498) was 98.8% and the growth at 10 µM [20] was 92%. For the same compound, the growth at 10 µM (SN12C) was 71.2%, the growth at 10 µM [21] was 58.8% and the growth at 10 µM [22] was 48.9%. For the same compound, the growth at 10 µM (MDA-MB-231) was 63.5%, the growth at 10 µM [23] was 30% and the growth at 10 µM [24] was 62.3%. The growth at 10 µM (MDA-MB-468) was 49.9%.

For `CNC(=O)c1cc(Oc2ccc3nc(NC(=O)c4ccc5c(c4)OCCO5)sc3c2)ccn1`, the inhibition of growth at 100 µM [1] was 49.9%, the inhibition of growth at 10 µM [2] was 10.5% and the inhibition of growth at 100 µM [3] was 62.3%. The inhibition of growth at 10 µM [4] was 50.7%, the growth at 10 µM (CCRF-CEM) was 98.4% and the growth at 10 µM [5] was 93.7%. The growth at 10 µM (A549) was 98.8%, the growth at 10 µM [6] was 93.5% and the growth at 10 µM (NCI-H226) was 99.6%. For the same compound, the growth at 10 µM (NCI-H23) was 90%, the growth at 10 µM (NCI-H322M) was 99% and the growth at 10 µM [7] was 103%. It also gave a growth at 10 µM [8] of 103%, a growth at 10 µM [9] of 105% and a growth at 10 µM (KM12) of 95.3%. It also gave a growth at 10 µM [10] of 107%, a growth at 10 µM [11] of 96.6% and a growth at 10 µM [12] of 101%. It also gave a growth at 10 µM (MDA-MB-435) of 98.5%, a growth at 10 µM (SK-MEL-2) of 113% and a growth at 10 µM [13] of 95%. It also gave a growth at 10 µM [14] of 99.5%, a growth at 10 µM [15] of 101% and a growth at 10 µM [16] of 97.5%. The growth at 10 µM [17] was 99.1%, the growth at 10 µM [18] was 100% and the growth at 10 µM [19] was 101%. It also gave a growth at 10 µM (786-0) of 97.3%, a growth at 10 µM (A498) of 95.1% and a growth at 10 µM [20] of 97.7%. For the same compound, the growth at 10 µM (SN12C) was 107%, the growth at 10 µM [21] was 95.8% and the growth at 10 µM [22] was 98.5%. The growth at 10 µM (MDA-MB-231) was 101%, the growth at 10 µM [23] was 112% and the growth at 10 µM [24] was 89.8%. It also gave a growth at 10 µM (MDA-MB-468) of 108%.
